Results published in ChEMBL document CHEMBL4265965, “Dichloroacetophenones targeting at pyruvate dehydrogenase kinase 1 with improved selectivity and antiproliferative activity: Synthesis and structure-activity relationships” (Bioorg Med Chem Lett, 2018).
Active and inactive are the calls of the source. No cut-off for these calls is given here.

Tests used:
A549 [1] = assay: Antiproliferative activity against human A549 cells assessed as inhibition of cell proliferation at 2 uM after 72 hrs by MTT assay relative to control; type: functional; conditions: for inhibition at 2 µM: A549, 72 h
NCI-H1975 [2] = assay: Antiproliferative activity against human NCI-H1975 cells assessed as inhibition of cell proliferation after 72 hrs by MTT assay; type: functional, cell-based; conditions: NCI-H1975, 72 h
[3] = target: T1, [Pyruvate dehydrogenase (acetyl-transferring)] kinase isozyme 1, mitochondrial (Homo sapiens, UniProt Q15118); assay: Inhibition of PDK1 in human NCI-H1975 cells assessed as reduction in pyruvate dehydrogenase phosphorylation at 10 uM after 24 hrs by Western blot analysis; type: cell-based
A549 [4] = assay: Antiproliferative activity against human A549 cells assessed as inhibition of cell proliferation at 6 uM after 72 hrs by MTT assay relative to control; type: functional; conditions: for inhibition at 6 µM: A549, 72 h
[5] = target: T1, [Pyruvate dehydrogenase (acetyl-transferring)] kinase isozyme 1, mitochondrial; assay: Inhibition of recombinant human N-terminal His6/Sumo-tagged PDK1 (29 to 436 residues) expressed in Escherichia coli BL21 at 1 uM by kinase-glo luminescence assay relative to control
A549 [6] = assay: Antiproliferative activity against human A549 cells assessed as inhibition of cell proliferation at 12 uM after 72 hrs by MTT assay relative to control; type: functional; conditions: for inhibition at 12 µM: A549, 72 h
NCI-H1650 [7] = assay: Antiproliferative activity against human NCI-H1650 cells assessed as inhibition of cell proliferation at 6 uM after 72 hrs by MTT assay relative to control; type: functional; conditions: for inhibition at 6 µM: NCI-H1650, 72 h
NCI-H1975 [8] = assay: Antiproliferative activity against human NCI-H1975 cells assessed as inhibition of cell proliferation at 12 uM after 72 hrs by MTT assay relative to control; type: functional; conditions: NCI-H1975, 72 h
NCI-H1650 [9] = assay: Antiproliferative activity against human NCI-H1650 cells assessed as inhibition of cell proliferation at 2 uM after 72 hrs by MTT assay relative to control; type: functional; conditions: for inhibition at 2 µM: NCI-H1650, 72 h
NCI-H1975 [10] = assay: Antiproliferative activity against human NCI-H1975 cells assessed as inhibition of cell proliferation at 2 uM after 72 hrs by MTT assay relative to control; type: functional; conditions: for inhibition at 2 µM: NCI-H1975, 72 h
NCI-H1650 [11] = assay: Antiproliferative activity against human NCI-H1650 cells assessed as inhibition of cell proliferation at 12 uM after 72 hrs by MTT assay relative to control; type: functional; conditions: NCI-H1650, 72 h
NCI-H1975 [12] = assay: Antiproliferative activity against human NCI-H1975 cells assessed as inhibition of cell proliferation at 6 uM after 72 hrs by MTT assay relative to control; type: functional; conditions: for inhibition at 6 µM: NCI-H1975, 72 h
Sus scrofa = species on record: Sus scrofa; assay: Inhibition of porcine PDK1 assessed as activation of pyruvate dehydrogenase complex at 1 uM measured after 3 mins

Row | IC50 (NCI-H1975 [2]) | inhibition [3] | inhibition [5] | inhibition (Sus scrofa) | Compound | inhibition at 2 µM (A549 [1]) | inhibition at 6 µM (A549 [4]) | inhibition at 12 µM (A549 [6]) | inhibition at 6 µM (NCI-H1650 [7]) | inhibition at 12 µM (NCI-H1975 [8]) | inhibition at 2 µM (NCI-H1650 [9]) | inhibition at 2 µM (NCI-H1975 [10]) | inhibition at 12 µM (NCI-H1650 [11]) | inhibition at 6 µM (NCI-H1975 [12]) | inhibition (NCI-H1650 [9]) | inhibition (A549 [1]) | inhibition (A549 [4]) | inhibition (NCI-H1650 [7]) | inhibition (NCI-H1975 [10]) | inhibition (NCI-H1975 [12]) | inhibition (A549 [6])
1 | 2 µM | Active | 19.7 to 67.9% |  | CCCOc1ccc(C(=O)C(Cl)Cl)cc1 | 8.4% | 58.9% | 79.7% | 66% | 97.7% | 27.4% | 44.3% | 95.3% | 93% |  |  |  |  |  |  | 
2 |  | Active | 19.7 to 67.9% |  | CC1CCOc2ccc(C(=O)C(Cl)Cl)cc21 (configuration not stated) | 24.1% | 77.7% | 93.4% | 67.3% | 99.6% | 27% | 69.4% | 94.8% | 98% |  |  |  |  |  |  | 
3 | 2 µM | Active | 19.7 to 67.9% |  | O=C(c1ccc(-c2ccccc2)cc1)C(Cl)Cl | 22.5% | 75.9% | 91.2% | 79.2% | 99.4% | 42.2% | 56.3% | 96.4% | 90.3% |  |  |  |  |  |  | 
4 |  | Active | 19.7 to 67.9% |  | CCCCCOc1ccc(C(=O)C(Cl)Cl)cc1 | 20.2% | 60.4% | 85% | 81.5% | 98.5% | 32.8% | 57.5% | 98.2% | 96.6% |  |  |  |  |  |  | 
5 |  |  | Active | Active | CCCCOc1ccc(C(=O)C(Cl)Cl)cc1[N+](=O)[O-] | 28.3% | 79.9% | 95.2% | 28.8% | 98.9% |  | 55.7% | 63.1% | 96.3% | inactive |  |  |  |  |  | 
6 |  |  | Active | Active | O=C(c1ccc(OCCCCCBr)c([N+](=O)[O-])c1)C(Cl)Cl | 6.9% | 29.4% | 69.7% | 39.7% | 99.7% |  | 6.9% | 78.6% | 49.8% | inactive |  |  |  |  |  | 
7 |  |  | Active | Active | O=C(c1ccc(OCCCCBr)c([N+](=O)[O-])c1)C(Cl)Cl | 5.7% | 33.4% | 72.9% | 38.8% | 86.7% | 21.8% | 15% | 66.7% | 54.7% |  |  |  |  |  |  | 
8 |  |  | Active | Active | CC(C)Oc1ccc(C(=O)C(Cl)(Cl)Cl)cc1[N+](=O)[O-] |  |  | 15.9% |  | 35.6% |  |  | 24.7% |  | inactive | inactive | inactive | inactive | inactive | inactive | 
9 |  | Active | 19.7 to 67.9% |  | CCCCOc1ccc(C(=O)C(Cl)Cl)cc1 | 20.9% | 46.6% | 67% | 70.7% | 97.4% | 30.7% | 46.5% | 97.6% | 92% |  |  |  |  |  |  | 
10 | 0.2 µM |  | 15.1% |  | O=C(c1cccc(CCl)c1)C(Cl)Cl | 73.3% | 99.5% | 100% | 100% | 99.5% | 97.6% | 99% | 100% | 99.3% |  |  |  |  |  |  | 
11 |  | Active | 19.7 to 67.9% |  | O=C(c1ccc(OCCCBr)cc1)C(Cl)Cl | 21.7% | 80.1% | 98.4% | 65.4% | 99.9% | 27.9% | 69.8% | 92.5% | 99.6% |  |  |  |  |  |  | 
12 |  |  | Active | Active | CC(C)Oc1ccc(C(=O)CCl)cc1[N+](=O)[O-] |  | 14.8% | 38.9% | 24.8% | 85.6% |  |  | 51.4% | 27.7% | inactive | inactive |  |  | inactive |  | 
13 |  |  | Active | Active | COc1ccc(C(=O)C(Cl)Cl)cc1[N+](=O)[O-] | 17.7% | 46.7% | 81.8% | 75.7% | 97.4% | 30% | 22.3% | 97.2% | 89.4% |  |  |  |  |  |  | 
14 | 2 µM | Active | 47.1% |  | COc1ccc(C(=O)C(Cl)Cl)cc1Cl | 17% | 56.7% | 88.4% | 78.5% | 99.4% | 36.5% | 51.7% | 98.7% | 95.8% |  |  |  |  |  |  | 
15 |  | Active | 59.9% |  | CC(C)c1ccc(C(=O)C(Cl)Cl)cc1 | 24.4% | 65.8% | 88.1% | 65.3% | 96.7% | 26.6% | 60.1% | 91.2% | 96.1% |  |  |  |  |  |  | 
16 |  |  | Active | Active | CCCOc1ccc(C(=O)C(Cl)Cl)cc1[N+](=O)[O-] |  | 19.5% | 68.4% | 38% | 91.6% | 7.6% | 3.4% | 99.9% | 37.8% |  | inactive |  |  |  |  | 

Row | Compound | IC50 (NCI-H1975 [2]) | inhibition [3] | inhibition [5] | inhibition (Sus scrofa) | inhibition at 2 µM (A549 [1]) | inhibition at 6 µM (A549 [4]) | inhibition at 12 µM (A549 [6]) | inhibition at 6 µM (NCI-H1650 [7]) | inhibition at 12 µM (NCI-H1975 [8]) | inhibition at 2 µM (NCI-H1650 [9]) | inhibition at 2 µM (NCI-H1975 [10]) | inhibition at 12 µM (NCI-H1650 [11]) | inhibition at 6 µM (NCI-H1975 [12]) | inhibition (NCI-H1650 [9]) | inhibition (A549 [1]) | inhibition (A549 [4]) | inhibition (NCI-H1650 [7]) | inhibition (NCI-H1975 [10]) | inhibition (NCI-H1975 [12]) | inhibition (A549 [6])
17 | O=C(Nc1ccccc1)C(Cl)Cl |  |  | inactive | inactive |  | 14.6% | 20.3% | 15.5% | 30.2% |  |  | 21.3% | 21.6% | inactive | inactive |  |  | inactive |  | 
18 | O=C(c1ccco1)C(Cl)Cl |  |  | inactive | 2.5% | 8.9% | 35.8% | 79.8% | 48.9% | 94.5% | 21.4% | 31.2% | 85.7% | 58.6% |  |  |  |  |  |  | 
19 | O=C(c1cccnc1)C(Cl)Cl |  |  | inactive | inactive |  |  |  | 29.1% | 52% |  |  | 56.5% | 9.3% | inactive | inactive | inactive |  | inactive |  | inactive
